According to article PMC12858467, “In vitro toxicokinetics and metabolic profiling of methoxycathinones and methylthiocathinones using human liver systems and hyphenated mass spectrometry” (Archives of Toxicology, 2025):
Like-named read-outs stand apart in the source and are kept apart here.

Columns and labels:
[1] = tested on: pooled human liver S9 fraction (pHLS9) and HepaRG cells; assay: In vitro metabolism by pHLS9 and HepaRG cells (LC-HRMS/MS metabolite identification); format: in vitro ADME; settings: 25 µM substrate
[2] = In vitro plasma protein binding (ultrafiltration, Centrifree); format: in vitro ADME; settings: human, pooled human blood plasma, 30 min, 37 °C, ultrafiltration
Experimental: (§1) PPB was investigated according to a previous study with minor modifications (Kroesen et al. [2025]). Fresh and pooled human blood plasma (450 µL) was spiked with 50 µL of a 5 µM methanolic solution of 4MeO-NE-BP, 4MeO-αP-BP, 4MeO-αP-VP, 4MeS-NE-BP, 4MeS-αP-BP, or 4MeS-αMor-PrP. The mixture was incubated for 30 min at 37 °C and with gentle shaking at 200 rpm. […] The Centrifree devices were centrifuged for 35 min at 1600 × g to obtain 100 µL of the ultrafiltrate (UF). […] Experiments were performed in quadruplicate. Fraction unbound (fu) and PPB were determined by comparing the area ratios of the compound and trimipramine-d3 as an internal standard in the UF and GA using the following equations:1 fu=peak area ratiocompoundUF/ISUF/peak area ratiocompoundGA/ISGA 2 PPB[\%]=1-fu∗100.

[3] = tested on: plasma proteins (pooled human blood plasma); assay: as above; format: in vitro ADME; settings: for PPB, %: 30 min, 37 °C, ultrafiltration
Experimental: as §1

[4] = tested on: dopamine and serotonin transporters; parameters: method as in Wojcieszak et al. [2021]; settings: ref Wojcieszak et al. [2021]; cited from earlier work
HepaRG cells = assay: Incubations using HepaRG cells; settings: 25 µM parent, 24 h
Experimental: Cell incubations were performed in a monolayer assay (Kroesen et al. [2025]) and in accordance with the manufacturer’s instructions.
All incubations were performed in triplicate, with each well containing 0.5% (v/v) DMSO. Following incubation, 50 µL of the medium supernatant was transferred to a new reaction tube and precipitated with 30 µL of acetonitrile cooled to −20 °C, containing 2.5 µM trimipramine-d3 as an internal standard. […] The mixture was vortexed and centrifuged for 2 min at 18,407 × g. A volume of 70 µL of the supernatant was transferred into an autosampler vial and 5 µL was injected onto the LC–HRMS/MS system.
HepaRG cells were thawed and resuspended in 13.5 mL (~ 740,000 cells/mL) thaw
and seed medium at 37 °C. Thaw and seed medium consisted of Williams E medium,
100 U/mL penicillin, 100 µg/mL streptomycin, GlutaMAX, and HPRG670 supplement.
Cells were handled under sterile conditions using a laminar flow bench class II (Thermo
Scientific, TF, Schwerte, Germany). Aliquots of 100 µL cell suspension were seeded
on collagen-coated 96-well plates (~ 74,000 cells/well). Evaporation was minimized by
filling the outer wells with 100 µL thaw and seed medium. Cells were preincubated for
4 h in an incubator (Binder, Tuttlingen, Germany) at 37 °C, 95 % air humidity, and 5 %
CO2. After preincubation, 50 µL of the thaw and seed medium was replaced with 50 µL
solution of each cathinone (25 µM) in thaw and seed medium, followed by an
incubation for 24 h at 37 °C, 95 % air humidity, and 5 % CO2 atmosphere.
A Thermo Fisher ( TF, Dreieich, Germany) Dionex UltiMate 3000 RS pump consisting
of a degasser, a quaternary pump, and an autosampler, coupled to a TF Q Exactive
Plus system equipped with a heated electrospray ionization (HESI)-II source were
used. A mass calibration was done according to the manufacturer's recommendations
using external mass calibration prior to analysis. Gradient elution was performed on a
TF Accucore PhenylHexyl column (100 mm x 2.1 mm, 2.6 μm) with a 2 mM aqueous
ammonium formate solution containing 0.1 % (v/v) formic acid (pH 3, eluent A) and 2
mM ammonium formate solution in acetonitrile/methanol (50:50, v/v) containing 0.1 %
(v/v) formic acid, and 1 % (v/v) water (eluent B). The gradient was stepped as follows:
hold 99 % A. Initial flow rate from 0–9.5 min was 500 μL/min and final flow rate was
800 μL/min from 9.5–11.5 min. Mass spectrometry was performed using full scan data
and a subsequent data-dependent acquisition (DDA) with priority to mass-to-charge
ratios (m/z) of parent compounds and their expected metabolites. The inclusion list
contained m/z values of likely formed metabolites such as O- or S-desmethyl, hydroxy,
and oxo reduction metabolites (phase I) as well as sulfates, glucuronides (phase II),
and combinations thereof.
TF Xcalibur Qual Browser software […]

[5] = read-out: fu (unbound fraction)

SMILES	metabolic reactions (metabolite IDs) identified [1]	number of metabolites tentatively identified [1]	fraction unbound at 30 min, 0.5 µM ([2]; read-out: PPB, % (converted))	fraction unbound at 30 min, 0.5 µM [2, 5]	Plasma protein binding, class in words [3]	PPB, % [3] [%]	Phase II metabolism [1]	monoamine uptake inhibition, relative potency at transporters [4]	metabolite detection in HepaRG incubations (HepaRG cells)
CCC(C(=O)c1ccc(OC)cc1)N1CCCC1 (stereo not drawn) [Compound 4MeO-αP-BP, 4’-methoxy-α-pyrrolidinobutyrophenone]	hydroxylation (MO2.1), O-demethylation (MO2.2), N-oxidation (MO2.3), lactam formation (MO2.4), and hydroxylation + N-oxidation (MO2.5)	5	> 0.5	0.54	low	46			
CCCC(C(=O)c1ccc(OC)cc1)N1CCCC1 (stereo not drawn) [Compound 4MeO-αP-VP, 4’-methoxy-α-pyrrolidinovalerophenone]	hydroxylation (MO3.1, MO3.3), O-demethylation (MO3.2), N-oxidation (MO3.4), lactam formation (MO3.5), O-demethylation + aromatic hydroxylation (MO3.6), hydroxylation + N-oxidation (MO3.7), and O-demethylation + dihydroxylation at the pyrrolidine ring (MO3.8)	10		0.39	moderate	61	O-sulfation (MO3.9) and O-glucuronidation (MO3.10) after O-demethylation	greater potency in dopamine than serotonin transporters	
CCCC(C(=O)c1ccc(OS(=O)(=O)O)cc1)N1CCCC1 (centres unmarked) [MO3.9]									observed in HepaRG incubations
